One test addresses δ opioid receptor (Homo sapiens, UniProt P41143). Put plainly: biochemical. It counts as binding.
The conditions of test [1]: systemic administration; greater than I; cited from earlier work.
The conditions of test [2]: higher than I; cited from earlier work.
The conditions of test [3]: higher than I; cited from earlier work. This is another data set of the same source.

SMILES strings stand for the structures.

Sequence of δ opioid receptor (P41143 whole entry): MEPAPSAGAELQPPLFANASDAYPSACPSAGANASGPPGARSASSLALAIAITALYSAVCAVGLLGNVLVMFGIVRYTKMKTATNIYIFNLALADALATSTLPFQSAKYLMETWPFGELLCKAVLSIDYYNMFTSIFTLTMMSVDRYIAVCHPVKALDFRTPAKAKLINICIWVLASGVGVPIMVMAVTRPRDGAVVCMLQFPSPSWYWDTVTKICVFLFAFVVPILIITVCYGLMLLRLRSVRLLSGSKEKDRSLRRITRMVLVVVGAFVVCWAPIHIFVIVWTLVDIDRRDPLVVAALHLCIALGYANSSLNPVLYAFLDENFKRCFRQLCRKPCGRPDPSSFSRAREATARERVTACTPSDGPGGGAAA

By Ki is commonly meant a measure of affinity in units of concentration, obtained from inhibition or displacement. For `CCCCN(CCCC)CCOC/C=C/c1ccccc1` [Compound 17, 2-(Cinnamyloxy)-N,N-dibutylethanamine], the Ki on δ opioid receptor was more than 10 µM.
The same measure, in the same setting: to `CCCCN(CCCC)CCOCCCc1ccccc1` [Compound 18, N,N-dibutyl-2-(3-phenylpropoxy)ethanamine] belongs more than 10 µM; to `CN(CCOC/C=C/c1ccccc1)Cc1ccccc1` [Compound 33, N-benzyl-2-(cinnamyloxy)-N-methylethanamine], more than 10 µM; to `CN(CCOCCCc1ccccc1)Cc1ccccc1` [Compound 34, N-benzyl-N-methyl-2-(3-phenylpropoxy)ethanamine], more than 10 µM.
Same read-out and setting: to `CN(CCCc1ccccc1)CCOC/C=C/c1ccccc1` [Compound 37, 2-(Cinnamyloxy)-N-methyl-N-phenylpropylethanamine] belongs more than 10 µM.
`CO[C@@]12CCC(=O)[C@]3(C)Oc4c(O)ccc5c4[C@@]31CCN(C)[C@@H]2C5` [II, 14-methoxymetopon]: the “systemic antinociceptive potency relative to I (morphine)” value in test [1] is 500 fold.
On to `CN1CCC23c4c5ccc(O)c4OC2(C)C(=O)CCC3(OCCCc2ccccc2)C1C5` (centres unmarked) [III, 14-phenylpropyloxymetopon], for which the “potency in the tail flick assay as compared to I (morphine)” value in test [2] is recorded as 24000 fold. The “potency in the hot plate assay as compared to I (morphine)” value in test [3] was 8500 fold.
